In patent US20250213516A1, “Prophylactic Methods For Treating ALS” (BioJiva LLC, priority 2022, published 2025):
Entries after “also recorded” stand apart in the source; their conditions may differ.

What was measured:
inflammation model = assay: Inflammation model
[1] = test system: patients in the incipient stage of ALS; assay: Clinical study, ALSFRS-R scoring of patients in the incipient stage of ALS; assay type: in vivo, human; settings: for patients showing a better rate of decline (cut-off −11 change from baseline in ALSFRS-R): incipient stage, scored at 48 weeks
Text: This rating scale evaluated 12 different components on a 0 (worse) to 4 (best) scale where the components are speech, salivation, swallowing, handwriting, […], food handling, dressing and hygiene, turning in bed, […], climbing stairs, dyspnea, orthopnea, and respiratory insufficiency. As used herein, patients diagnosed with ALS are first evaluated to determine their natural history which measures the extent of loss of muscular functional due to the disease prior to initiation of therapy.
In this example, 41 patients diagnosed with ALS were tested to ascertain their natural history. Of these 41 patients, 23 scored above 38 points in the ALSFRS-R scoring test and were assigned as having incipient ALS. […] Each cohort received three 1 gram pills t.i.d. (“.three times a day”) at breakfast, lunch and dinner for a total of 9 pills.
After 24 weeks, each patient in each cohort were retested using the ALSFRS-R scoring test. The scores were then averaged for each cohort and the results are found in FIG. 1.
Each cohort received three 1 gram pills t.i.d. (“.three times a day”) at breakfast, lunch and dinner for a total of 9 pills.
After 48 weeks, each patient in each cohort were retested using the ALSFRS-R scoring test. The scores were then averaged.

[2] = test system: patients in the accelerated stage of ALS; assay: Clinical study, ALSFRS-R scoring of patients in the accelerated stage of ALS; assay type: in vivo, human; settings: 9 g/day ethyl ester vs placebo, 24 weeks, FIG. 2
Text: As used herein, the term “accelerated stage of ALS” refers to patients whose diseases progression has evidenced a more substantial loss of muscular functionality. For the purposes of this application, such is identified as having a natural history score of 37 or less.
In this example, the same 41 patients diagnosed with ALS used in Comparative Example 1 were used. […] Each cohort received three 1 gram pills t.i.d. at breakfast, lunch and dinner for a total of 9 pills.
After 24 weeks, each patient in each cohort were retested using the ALSFRS-R scoring test. The scores were then averaged for each cohort and the results are found in FIG. 2.

[3] = average diet, about 14 grams linoleic acid per day; cited from earlier work

With `[2H]C([2H])(/C=C\CCCCC)/C=C\C([2H])([2H])/C=C\C([2H])([2H])/C=C\CCCC(=O)O` [7,7,10,10,13,13-D6-arachidonic acid] the “activity relative to 13,13-D2-arachidonic acid” value (inflammation model) was “a little more than twice as active”.
In the case of `[2H]C([2H])(/C=C\CCCCC)/C=C\CCCCCCCC(=O)OCC`, the “change in ALSFRS-R scores (loss of functionality), cohort average” value ([1]; incipient stage ALS, about 9 g/day ethyl ester (8.64 g acid) vs placebo, 24 weeks, FIG. 1) is reported as “do not evidence a significant change; also recorded: minimal loss of functionality” and the “loss of muscular functionality (ALSFRS-R, cohort average)” value [2] is reported as “substantially less loss of muscular functionality”.
With `[2H]C([2H])(/C=C\CCCCC)/C=C\CCCCCCCC(=O)O` [11,11-D2-linoleic acid] the “patients showing a better rate of decline (cut-off −11 change from baseline in ALSFRS-R)” value ([1]; placebo for 24 weeks, then 8.64 g/day for 24 weeks) was 40% and the “patients showing a better rate of decline (cut-off −11 change from baseline in ALSFRS-R)” value ([1]; treated with 8.64 g/day for 48 weeks) was 70%.
For `CCCCC/C=C\C/C=C\CCCCCCCC(=O)O` [linoleic acid], the “portion of linoleic acid consumed hepatically converted to arachidonic acid” value [3] is given as “about 10%”.
